From patent US8158372B2, “Agonists of a bitter taste receptor and uses thereof” (Deutsches Institut für Ernährungsforschung Potsdam-Rehbrücke, priority 2004, dated 2012)
Counter-ions that a name gives are not always drawn. Like-named read-outs stand apart in the source and are kept apart here.

Assays:
[1] = molecular target: T1, hTAS2R14 (Homo sapiens, UniProt Q9NYV8)
T1 sequence (Q9NYV8 1-317): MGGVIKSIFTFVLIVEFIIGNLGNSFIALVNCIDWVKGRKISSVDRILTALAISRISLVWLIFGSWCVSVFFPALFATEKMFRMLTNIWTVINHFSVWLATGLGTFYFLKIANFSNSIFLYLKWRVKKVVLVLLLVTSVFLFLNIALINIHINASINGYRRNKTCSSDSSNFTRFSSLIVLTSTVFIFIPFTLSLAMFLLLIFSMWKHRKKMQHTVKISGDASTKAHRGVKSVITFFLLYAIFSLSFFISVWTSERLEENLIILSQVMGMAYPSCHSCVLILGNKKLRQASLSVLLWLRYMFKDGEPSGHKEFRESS

[2] = molecular target: T2, hTAS2R4 (Homo sapiens, UniProt Q9NYW5); conditions: denatonium at high doses; Chandrashekar et al. 2000; cited from earlier work
T2 sequence (Q9NYW5 1-299): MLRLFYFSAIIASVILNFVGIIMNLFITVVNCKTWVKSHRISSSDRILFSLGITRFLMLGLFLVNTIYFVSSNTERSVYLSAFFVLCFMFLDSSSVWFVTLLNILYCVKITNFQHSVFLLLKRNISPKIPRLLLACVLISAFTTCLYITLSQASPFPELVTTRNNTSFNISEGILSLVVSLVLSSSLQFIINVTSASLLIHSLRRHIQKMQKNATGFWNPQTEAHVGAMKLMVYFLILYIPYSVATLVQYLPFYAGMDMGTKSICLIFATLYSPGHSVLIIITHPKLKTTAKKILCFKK

[3] = molecular target: T3, rTAS2R9 (Rattus norvegicus, UniProt Q9JKT5); conditions: Bufe et al. 2002; cited from earlier work
T3 sequence (Q9JKT5 1-309): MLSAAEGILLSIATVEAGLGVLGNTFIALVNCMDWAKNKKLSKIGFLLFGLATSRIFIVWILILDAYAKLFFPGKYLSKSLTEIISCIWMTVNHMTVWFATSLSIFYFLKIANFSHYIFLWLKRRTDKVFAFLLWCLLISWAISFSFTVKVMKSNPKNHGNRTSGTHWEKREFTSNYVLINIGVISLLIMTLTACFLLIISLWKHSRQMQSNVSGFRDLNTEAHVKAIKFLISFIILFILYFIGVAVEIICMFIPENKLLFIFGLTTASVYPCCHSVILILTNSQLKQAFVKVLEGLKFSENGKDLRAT

[4] = molecular target: T4, mTAS2R5 (Mus musculus, UniProt Q9JKT4); conditions: Chandrashekar et al. 2000; cited from earlier work
T4 sequence (Q9JKT4 1-300): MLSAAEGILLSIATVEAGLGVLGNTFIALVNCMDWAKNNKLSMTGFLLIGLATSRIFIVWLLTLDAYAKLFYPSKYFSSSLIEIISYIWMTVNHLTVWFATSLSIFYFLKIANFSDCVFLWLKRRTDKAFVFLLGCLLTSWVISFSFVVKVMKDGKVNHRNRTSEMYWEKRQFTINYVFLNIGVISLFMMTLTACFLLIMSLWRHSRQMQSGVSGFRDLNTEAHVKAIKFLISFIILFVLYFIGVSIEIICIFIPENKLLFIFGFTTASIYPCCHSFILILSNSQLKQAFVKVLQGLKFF

[5] = molecular target: T5, mTAS2R8 (Mus musculus, UniProt Q9JKT3); conditions: denatonium at high doses; Chandrashekar et al. 2000; cited from earlier work
T5 sequence (Q9JKT3 1-297): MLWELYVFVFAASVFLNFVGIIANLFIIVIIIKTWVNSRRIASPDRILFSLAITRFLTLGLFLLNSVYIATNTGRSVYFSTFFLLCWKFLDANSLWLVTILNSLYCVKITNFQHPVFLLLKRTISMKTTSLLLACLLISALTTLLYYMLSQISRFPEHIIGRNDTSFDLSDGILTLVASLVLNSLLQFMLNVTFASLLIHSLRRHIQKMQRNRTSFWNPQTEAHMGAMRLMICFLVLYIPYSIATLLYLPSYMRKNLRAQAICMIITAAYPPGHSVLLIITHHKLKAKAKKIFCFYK

[6] = increase of intracellular calcium (fluorescence) in hTAS2R14 transfected cells, traces only shown as drawings, Table 1 A

For CN1CCCC1c1cccnc1 (single isomer, unassigned; (-)) [(−)-nicotine], the response ([1]; conc 10 μM) was “n.r”.

With C1CCN2C[C@H]3CC(CN4CCCC[C@@H]34)[C@H]2C1 (single isomer, unassigned; (-)) [(−)-sparteine] the response [1] was “n.r”.

For O=Cc1cccc2cccc(C(=O)O)c12 [1,8-naphthaldehydic acid], the “activation of hTAS2R14 (agonist)” value [1, 6] was “agonist”.

For O=C(O)c1cccc2ccccc12 [1-naphthoic acid], the “activation of hTAS2R14 (agonist)” value [1, 6] was “agonist”.

In the case of O=[N+]([O-])c1cccc2ccccc12 [1-nitronaphthalene], the “activation of hTAS2R14 (agonist)” value [1] is reported as “agonist”.

In the case of CCCc1cc(=O)[nH]c(=S)[nH]1 [6-propyl-2-thiouracil (PROP), 6-propyl-2-thiouracil], the receptor response [2] is given as “to a lesser extend” and the response ([1]; conc 100 μM) is given as “n.r”.

With c1ccc2c(c1)CCc1ccccc1-2 [9,10-dihydrophenanthrene] the response ([1]; conc 5 μM) was “n.r”.

With N[C@H](Cc1ccccc1)C(=O)O [D-phenylalanine] the response ([1]; conc 10000 μM) was “n.r”.

With N[C@@H](Cc1ccccc1)C(=O)O [L-phenylalanine] the response ([1]; conc 10000 μM) was “n.r”.

In the case of CCN(CCCc1ccccc1)CCCc1ccccc1.O=C(O)CC(O)(CC(=O)O)C(=O)O [alverine citrate salt], the response ([1]; conc 50 μM) is reported as “n.r”.

In the case of Cc1cc(=O)n(-c2ccccc2)n1C [antipyrine], the response [1] is reported as “n.r”.

For CN1C2CCC1CC(OC(=O)C(CO)c1ccccc1)C2 (stereo not drawn) [atropine], the response [1] was “n.r”.

For O=C(c1ccccc1)C(O)c1ccccc1 (stereo not drawn) [benzoin], the response [1] was “n.r”.

With O=C(O)/C=C/c1ccc(O)c(O)c1 [caffeic acid] the response ([1]; conc 30 μM) was “n.r”.

In the case of Cn1c(=O)c2c(ncn2C)n(C)c1=O [caffeine], the response ([1]; conc 3000 μM) is reported as “n.r”.

In the case of CCCC(C)(COC(N)=O)COC(=O)NC(C)C (stereo not drawn) [carisoprodol], the response [1] is reported as “n.r”.

With O=C(N[C@H](CO)[C@H](O)c1ccc([N+](=O)[O-])cc1)C(Cl)Cl [chloramphenicol] the response ([1]; conc 30 μM) was “n.r”.

For COc1cc2c(c(OC)c1OC)-c1ccc(OC)c(=O)cc1[C@@H](NC(C)=O)CC2 [colchicine], the response [1] was “n.r”.

With O=C([O-])c1cc(=O)c2c(OCC(O)COc3cccc4oc(C(=O)[O-])cc(=O)c34)cccc2o1.[Na+].[Na+] [cromolyn sodium salt] the response ([1]; conc 5000 μM) was “n.r”.

In the case of C[C@@H]1C[C@@H]([C@H](O)CC2CC(=O)NC(=O)C2)C(=O)[C@@H](C)C1 [cycloheximide], the receptor response [3] is listed as “respond”, the receptor response [4] is listed as “respond” and the response [1] is listed as “n.r”.

For CC[N+](CC)(CC(=O)Nc1c(C)cccc1C)Cc1ccccc1 [denatonium], the receptor response [2] is listed as “respond” and the receptor response [5] is listed as “respond”.

For CC(=O)OC1C[C@H]2[C@H](C)C(=O)O[C@@H]2/C=C(\C)CC/C=C/1C (stereo partly drawn) [herbolide A], the “activation of hTAS2R14 (agonist)” value [1, 6] was “agonist”.

With C=C1C(OC(C)=O)CC/C(C)=C/[C@H]2OC(=O)[C@@H](C)[C@@H]2CC1OC(C)=O (stereo partly drawn) [herbolide D acetate] the “activation of hTAS2R14 (agonist)” value [1, 6] was “agonist”.

For C=C1C(=O)OC2C3O[C@]3(C)CC/C=C(\C)CC(O)[C@@H]12 (stereo partly drawn) [hydroxy-8α-parthenolide], the “activation of hTAS2R14 (agonist)” value [1, 6] was “agonist”.

For C=C1C(=O)O[C@H]2[C@H]1CC/C(C)=C/CC[C@@]1(C)O[C@@H]21 [parthenolide], the “activation of hTAS2R14 (agonist)” value [1, 6] was “agonist”.

With NC(=S)Nc1ccccc1 [phenylthiocarbamide (PTC), phenylthiocarbamide] the response [1] was “n.r”.

In the case of CC(C)(O)[C@@H]1[C@H]2OC(=O)[C@@H]1[C@]1(O)C[C@H]3O[C@]34C(=O)O[C@H]2[C@]14C [picrotin], the “activation of hTAS2R14 (agonist)” value [1] is reported as “agonist”.

For C=C(C)[C@@H]1[C@H]2OC(=O)[C@@H]1[C@]1(O)C[C@H]3O[C@]34C(=O)O[C@H]2[C@]14C [picrotoxinin], the “activation of hTAS2R14 (agonist)” value [1] was “agonist”.

For O=C(O)c1ccc2c(c1)OCO2 [piperonylic acid], the “activation of hTAS2R14 (agonist)” value [1] was “agonist”.

For CC1CCC2[C@@H]1C1CC(O)[C@H](C)C1CC[C@@]2(C)O (stereo partly drawn) [pseudo-artabsine], the “activation of hTAS2R14 (agonist)” value [1, 6] was “agonist”.

For C=C[C@H]1CN2CC[C@H]1C[C@H]2[C@H](O)c1ccnc2ccc(OC)cc12 [quinine sulfate dihydrate], the response ([1]; conc 50 μM) was “n.r”.

In the case of O=C([O-])c1ccccc1.[Na+] [sodium benzoate], the “activation of hTAS2R14 (agonist)” value [1] is reported as “agonist”.

With (−)-α-thujone the “activation of hTAS2R14 (agonist)” value [1] was “agonist”.

With ouabain the response [1] was “n.r”.

In the case of strychnine nitrate, the response [1] is reported as “n.r”.
